Paper PMC3549271 (ACS medicinal chemistry letters, 2012)

Assays:
[1] = biological target: human A2A adenosine receptor (hA2AAR) (Homo sapiens, UniProt P29274); test: radioligand binding assay at human A2AAR; conditions: free energy of binding divided by the number of heavy atoms
[2] = biological target: T1, human A1 adenosine receptor (hA1AR) (Homo sapiens, UniProt P30542); test: radioligand binding assay at human A1AR; conditions: read-out: % inhibition at 10μM A1
T1 sequence (P30542 1-326): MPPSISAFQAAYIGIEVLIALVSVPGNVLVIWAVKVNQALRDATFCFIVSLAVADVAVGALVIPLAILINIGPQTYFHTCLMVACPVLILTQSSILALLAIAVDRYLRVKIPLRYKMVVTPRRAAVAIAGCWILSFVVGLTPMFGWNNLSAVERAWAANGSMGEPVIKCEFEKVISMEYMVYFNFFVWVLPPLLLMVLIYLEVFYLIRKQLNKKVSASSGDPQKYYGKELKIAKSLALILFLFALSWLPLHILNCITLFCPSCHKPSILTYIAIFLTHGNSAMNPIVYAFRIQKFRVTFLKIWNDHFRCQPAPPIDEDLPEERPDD

A2BAR = biological target: T2, A2BAR (Homo sapiens, UniProt P29275); type: cell-based
T2 sequence (P29275 1-332): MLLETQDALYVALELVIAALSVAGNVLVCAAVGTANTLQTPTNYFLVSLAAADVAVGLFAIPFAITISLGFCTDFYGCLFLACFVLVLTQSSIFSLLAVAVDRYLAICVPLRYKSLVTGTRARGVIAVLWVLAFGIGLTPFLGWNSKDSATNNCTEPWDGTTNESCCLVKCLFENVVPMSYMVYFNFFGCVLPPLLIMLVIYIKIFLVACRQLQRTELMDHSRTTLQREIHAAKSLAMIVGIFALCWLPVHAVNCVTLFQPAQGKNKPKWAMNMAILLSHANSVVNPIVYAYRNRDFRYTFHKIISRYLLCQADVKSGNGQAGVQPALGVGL

Chain of human A2A adenosine receptor (hA2AAR) (P29274 whole entry): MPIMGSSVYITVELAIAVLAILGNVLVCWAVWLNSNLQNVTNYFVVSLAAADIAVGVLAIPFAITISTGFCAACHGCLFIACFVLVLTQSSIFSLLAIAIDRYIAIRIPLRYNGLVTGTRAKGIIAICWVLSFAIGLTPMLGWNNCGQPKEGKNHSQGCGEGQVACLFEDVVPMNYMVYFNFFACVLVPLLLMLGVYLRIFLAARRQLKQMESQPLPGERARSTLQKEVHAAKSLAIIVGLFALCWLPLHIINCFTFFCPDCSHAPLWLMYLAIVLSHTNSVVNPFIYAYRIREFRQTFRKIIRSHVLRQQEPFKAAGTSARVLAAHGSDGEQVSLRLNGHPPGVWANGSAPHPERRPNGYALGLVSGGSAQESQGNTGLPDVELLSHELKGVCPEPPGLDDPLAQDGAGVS

Row | ligand efficiency (LE) [1] | inhibition at 10 µM [2] | % inhibition at 10μM A2B (inhibition of cAMP accumulation) (A2BAR; 10 μM compound, in the presence of 300 nM NECA, three independent experiments) | inhibition at 10 µM (A2BAR; read-out: % inhibition at 10μM A2B (inhibition of cAMP accumulation)) | SMILES
1 | 0.48 | – | – | – | CCCC(=O)Nc1nc(-c2ccccc2)n[nH]1 [Compound 27]
2 | 0.42 | – | – | – | COc1ccccc1C(=O)Nc1nc(-c2ccccc2)n[nH]1 [Compound 32]
3 | 0.34 | 19% | no significant activity | – | Cc1cccc(O[C@H](C)C(=O)Nc2nc(-c3ccccc3)n[nH]2)c1 [Compound 1]
4 | 0.44 | – | – | – | O=C(Nc1nc(-c2ccccc2)n[nH]1)c1ccccc1 [Compound 29]
5 | – | – | – | -15% | Cc1ccc(O[C@H](C)C(=O)Nc2nc(-c3ccco3)n[nH]2)cc1 [Compound 24]
